Where two headings read alike, the source gives them in different places.
Target: T1, Human pyruvate kinase R (PKR) (Homo sapiens, UniProt P30613)
T1 construct: Human pyruvate kinase R (PKR), residues 14-574; 6xHis-8xArg-SUMO (N, cleaved yes); host or cells: E. coli
Assay: Biochemical assay for activation of pyruvate kinase R (Kinase-Glo luminescence, ATP generation)
Details: for Emax: read-out: PKR % activation, maximal activation level achieved with each compound relative to the activation level achieved by AG-348 @ 10 μM
How it was run: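 Recombinant human PKR (residues 14-574) expressed in E. coli with His-Arg-SUMO tag, tag cleaved, purified by Ni-NTA, anion exchange and size exclusion. Activation read as ATP generation by Kinase-Glo luminescence.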

[1] = PKR AC50 (nM), 0.1 nM PKR, 0.3 mM ADP, 0.1 mM PEP, 1% DMSO

T1 sequence (P30613 14-574): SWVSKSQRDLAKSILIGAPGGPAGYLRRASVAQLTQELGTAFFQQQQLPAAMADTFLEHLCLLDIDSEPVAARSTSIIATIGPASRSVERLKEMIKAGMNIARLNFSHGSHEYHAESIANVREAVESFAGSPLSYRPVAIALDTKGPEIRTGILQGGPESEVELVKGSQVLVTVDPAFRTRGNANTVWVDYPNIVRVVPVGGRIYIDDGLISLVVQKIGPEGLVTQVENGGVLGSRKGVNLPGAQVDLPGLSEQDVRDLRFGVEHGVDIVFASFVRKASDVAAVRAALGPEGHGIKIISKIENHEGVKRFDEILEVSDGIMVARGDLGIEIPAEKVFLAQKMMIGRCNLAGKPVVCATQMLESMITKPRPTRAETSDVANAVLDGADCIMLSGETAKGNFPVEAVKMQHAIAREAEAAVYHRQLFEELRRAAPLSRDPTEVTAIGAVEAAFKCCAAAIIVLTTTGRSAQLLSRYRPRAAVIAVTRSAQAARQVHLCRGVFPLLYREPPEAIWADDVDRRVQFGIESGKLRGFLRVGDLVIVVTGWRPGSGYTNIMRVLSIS

Compound: O=C([C@H](CO)c1cccc(F)c1F)N1Cc2cn(S(=O)(=O)c3cnn(CC(F)(F)F)c3)nc2C1 [Compound 73, (2S)-2-(2,3-difluorophenyl)-3-hydroxy-1-{2-[1-(2,2,2-trifluoroethyl)pyrazol-4-ylsulfonyl]-4H,6H-pyrrolo[3,4-c]pyrazol-5-yl}propan-1-one]
- AC50 [1]: 17 nM
- Emax: 66%

Compound: O=C([C@@H](CO)c1cccc(F)c1F)N1Cc2cn(S(=O)(=O)c3cnn(CC(F)(F)F)c3)nc2C1 [Compound 74, (2R)-2-(2,3-difluorophenyl)-3-hydroxy-1-{2-[1-(2,2,2-trifluoroethyl)pyrazol-4-ylsulfonyl]-4H,6H-pyrrolo[3,4-c]pyrazol-5-yl}propan-1-one]
- AC50 [1]: 440 nM
- Emax: 72%

Compound: Cc1cn(CC(F)(F)F)nc1S(=O)(=O)n1cc2c(n1)CN(C(=O)C1(c3ncccc3Cl)COC1)C2 [Compound 75, (3-(3-chloropyridin-2-yl)oxetan-3-yl)(2-((4-methyl-1-(2,2,2-trifluoroethyl)-1H-pyrazol-3-yl)sulfonyl)-2,6-dihydropyrrolo[3,4-c]pyrazol-5(4H)-yl)methanone]
- AC50 [1]: 0.51 nM
- Emax: 3%

Compound: Cc1cn(CC(F)F)nc1S(=O)(=O)n1cc2c(n1)CN(C(=O)[C@H](CO)c1ccccc1)C2 [Compound 76, (2S)-1-{2-[1-(2,2-difluoroethyl)-4-methylpyrazol-3-ylsulfonyl]-4H,6H-pyrrolo[3,4-c]pyrazol-5-yl}-3-hydroxy-2-phenylpropan-1-one]
- AC50 [1]: 3800 nM
- Emax: 3%

Compound: Cc1cn(CC(F)F)nc1S(=O)(=O)n1cc2c(n1)CN(C(=O)[C@@H](CO)c1ccccc1)C2 [Compound 77, (2R)-1-{2-[1-(2,2-difluoroethyl)-4-methylpyrazol-3-ylsulfonyl]-4H,6H-pyrrolo[3,4-c]pyrazol-5-yl}-3-hydroxy-2-phenylpropan-1-one]
- AC50 [1]: 0.51 nM
- Emax: 16%

Compound: Cc1cn(CC(F)F)nc1S(=O)(=O)n1cc2c(n1)CN(C(=O)[C@H](CO)c1ccccc1F)C2 [Compound 78, (2S)-1-{2-[1-(2,2-difluoroethyl)-4-methylpyrazol-3-ylsulfonyl]-4H,6H-pyrrolo[3,4-c]pyrazol-5-yl}-2-(2-fluorophenyl)-3-hydroxypropan-1-one]
- AC50: 7.1 nM
- Emax: 32%

Compound: Cc1cn(CC(F)F)nc1S(=O)(=O)n1cc2c(n1)CN(C(=O)[C@@H](CO)c1ccccc1F)C2 [Compound 79, (2R)-1-{2-[1-(2,2-difluoroethyl)-4-methylpyrazol-3-ylsulfonyl]-4H,6H-pyrrolo[3,4-c]pyrazol-5-yl}-2-(2-fluorophenyl)-3-hydroxypropan-1-one]
- AC50: 550 nM
- Emax: 33%

Compound: Cc1cn(CC(F)F)nc1S(=O)(=O)n1cc2c(n1)CN(C(=O)[C@H](CO)c1ccccc1Cl)C2 [Compound 80, (2S)-2-(2-chlorophenyl)-1-(2-{[1-(2,2-difluoroethyl)-4-methyl-1H-pyrazol-3-yl]sulfonyl}-2H,4H,5H,6H-pyrrolo[3,4-c]pyrazol-5-yl)-3-hydroxypropan-1-one]
- AC50: 8.9 nM
- Emax: 73%

Compound: Cc1cn(CC(F)F)nc1S(=O)(=O)n1cc2c(n1)CN(C(=O)[C@@H](CO)c1ccccc1Cl)C2 [Compound 81, (2R)-2-(2-chlorophenyl)-1-{2-[1-(2,2-difluoroethyl)-4-methylpyrazol-3-ylsulfonyl]-4H,6H-pyrrolo[3,4-c]pyrazol-5-yl}-3-hydroxypropan-1-one]
- AC50: 500 nM
- Emax: 62%

Compound: Cc1cn(CC(F)F)nc1S(=O)(=O)n1cc2c(n1)CN(C(=O)C1(c3ncccc3Cl)COC1)C2 [Compound 82, 3-chloro-2-(3-{2-[1-(2,2-difluoroethyl)-4-methylpyrazol-3-ylsulfonyl]-4H,6H-pyrrolo[3,4-c]pyrazole-5-carbonyl}oxetan-3-yl)pyridine]
- AC50 [1]: 8.3 nM
- Emax: 19%

Compound: O=C([C@H](CO)c1ccccc1)N1Cc2cn(S(=O)(=O)c3cnn(CC(F)(F)F)c3)nc2C1 [Compound 83, (2S)-3-hydroxy-2-phenyl-1-{2-[1-(2,2,2-trifluoroethyl)pyrazol-4-ylsulfonyl]-4H,6H-pyrrolo[3,4-c]pyrazol-5-yl}propan-1-one]
- AC50: 15 nM
- Emax: 69%

Compound: O=C([C@@H](CO)c1ccccc1)N1Cc2cn(S(=O)(=O)c3cnn(CC(F)(F)F)c3)nc2C1 [Compound 84, (2R)-3-hydroxy-2-phenyl-1-{2-[1-(2,2,2-trifluoroethyl)pyrazol-4-ylsulfonyl]-4H,6H-pyrrolo[3,4-c]pyrazol-5-yl}propan-1-one]
- AC50: 2500 nM
- Emax: 73%

Compound: Cc1nn(CC(F)F)c(C)c1S(=O)(=O)n1cc2c(n1)CN(C(=O)[C@H](CO)c1ccccc1)C2 [Compound 87, (2S)-1-[2-[1-(2,2-difluoroethyl)-3,5-dimethylpyrazol-4-ylsulfonyl]-4H,6H-pyrrolo[3,4-c]pyrazol-5-yl]-3-hydroxy-2-phenylpropan-1-one]
- Emax: 59%

Compound: Cc1nn(CC(F)F)c(C)c1S(=O)(=O)n1cc2c(n1)CN(C(=O)[C@@H](CO)c1ccccc1)C2 [Compound 88, (2R)-1-[2-[1-(2,2-difluoroethyl)-3,5-dimethylpyrazol-4-ylsulfonyl]-4H,6H-pyrrolo[3,4-c]pyrazol-5-yl]-3-hydroxy-2-phenylpropan-1-one]
- AC50 [1]: 680 nM
- Emax: 0%

Compound: Cc1c(S(=O)(=O)n2cc3c(n2)CN(C(=O)[C@@H](CO)c2ccccc2)C3)cnn1CC(F)F [Compound 89, (R)-1-(2-((1-(2,2-difluoroethyl)-5-methyl-1H-pyrazol-4-yl)sulfonyl)-2,6-dihydropyrrolo[3,4-c]pyrazol-5(4H)-yl)-3-hydroxy-2-phenylpropan-1-one]
- AC50: 1200 nM
- Emax: 105%

Compound: O=C([C@H](CO)c1ccccc1Cl)N1Cc2cn(S(=O)(=O)c3cnn(CCF)c3)nc2C1 [Compound 90, (2S)-2-(2-chlorophenyl)-1-{2-[1-(2-fluoroethyl)pyrazol-4-ylsulfonyl]-4H,6H-pyrrolo[3,4-c]pyrazol-5-yl}-3-hydroxypropan-1-one]
- AC50 [1]: 5.7 nM
- Emax: 131%

Compound: O=C([C@@H](CO)c1ccccc1Cl)N1Cc2cn(S(=O)(=O)c3cnn(CCF)c3)nc2C1 [Compound 91, (2R)-2-(2-chlorophenyl)-1-{2-[1-(2-fluoroethyl)pyrazol-4-ylsulfonyl]-4H,6H-pyrrolo[3,4-c]pyrazol-5-yl}-3-hydroxypropan-1-one]
- AC50 [1]: 91 nM
- Emax: 164%

Compound: CCn1cc(S(=O)(=O)n2cc3c(n2)CN(C(=O)[C@H](CO)c2ccccc2)C3)c(C(F)(F)F)n1 [Compound 94, (2S)-1-{2-[1-ethyl-3-(trifluoromethyl)pyrazol-4-ylsulfonyl]-4H,6H-pyrrolo[3,4-c]pyrazol-5-yl}-3-hydroxy-2-phenylpropan-1-one]
- AC50 [1]: 34 nM
- Emax: 18%

Compound: CCn1cc(S(=O)(=O)n2cc3c(n2)CN(C(=O)[C@@H](CO)c2ccccc2)C3)c(C(F)(F)F)n1 [Compound 95, (2R)-1-{2-[1-ethyl-3-(trifluoromethyl)pyrazol-4-ylsulfonyl]-4H,6H-pyrrolo[3,4-c]pyrazol-5-yl}-3-hydroxy-2-phenylpropan-1-one]
- AC50 [1]: 2900 nM
- Emax: 15%

Compound: Cc1c(S(=O)(=O)n2cc3c(n2)CN(C(=O)[C@H](CO)c2ccccc2F)C3)cnn1CCF [Compound 96]
- AC50: 6.4 nM
- Emax: 93%

Compound: Cc1c(S(=O)(=O)n2cc3c(n2)CN(C(=O)[C@@H](CO)c2ccccc2F)C3)cnn1CCF [Compound 97, (2R)-1-{2-[1-(2-fluoroethyl)-5-methylpyrazol-4-ylsulfonyl]-4H,6H-pyrrolo[3,4-c]pyrazol-5-yl}-2-(2-fluorophenyl)-3-hydroxypropan-1-one]
- AC50: 550 nM
- Emax: 102%

Compound: Cc1c(S(=O)(=O)n2cc3c(n2)CN(C(=O)[C@H](CO)c2ccccc2Cl)C3)cnn1CCF [Compound 98, (2S)-2-(2-chlorophenyl)-1-{2-[1-(2-fluoroethyl)-5-methylpyrazol-4-ylsulfonyl]-4H,6H-pyrrolo[3,4-c]pyrazol-5-yl}-3-hydroxypropan-1-one]
- AC50 [1]: 9.1 nM
- Emax: 117%

Compound: Cc1c(S(=O)(=O)n2cc3c(n2)CN(C(=O)[C@@H](CO)c2ccccc2Cl)C3)cnn1CCF [Compound 99, (2R)-2-(2-chlorophenyl)-1-{2-[1-(2-fluoroethyl)-5-methylpyrazol-4-ylsulfonyl]-4H,6H-pyrrolo[3,4-c]pyrazol-5-yl}-3-hydroxypropan-1-one]
- AC50 [1]: 410 nM
- Emax: 100%

Compound: Cc1c(S(=O)(=O)n2cc3c(n2)CN(C(=O)[C@@H](CO)c2ccccc2F)C3)cnn1CC(F)F [Compound 100, (R)-1-(2-((1-(2,2-difluoroethyl)-5-methyl-1H-pyrazol-4-yl)sulfonyl)-2,6 dihydropyrrolo[3,4-c]pyrazol-5(4H)-yl)-2-(2-fluorophenyl)-3-hydroxypropan-1-one]
- AC50: 380 nM
- Emax: 126%

Compound: Cc1c(S(=O)(=O)n2cc3c(n2)CN(C(=O)[C@H](CO)c2ccccc2Cl)C3)cnn1CC(F)F [Compound 101, (2S)-2-(2-chlorophenyl)-1-{2-[1-(2,2-difluoroethyl)-5-methylpyrazol-4-ylsulfonyl]-4H,6H-pyrrolo[3,4-c]pyrazol-5-yl}-3-hydroxypropan-1-one]
- AC50 [1]: 8.5 nM
- Emax: 123%

Compound: Cc1c(S(=O)(=O)n2cc3c(n2)CN(C(=O)[C@@H](CO)c2ccccc2Cl)C3)cnn1CC(F)F [Compound 102, (2R)-2-(2-chlorophenyl)-1-{2-[1-(2,2-difluoroethyl)-5-methylpyrazol-4-ylsulfonyl]-4H,6H-pyrrolo[3,4-c]pyrazol-5-yl}-3-hydroxypropan-1-one]
- AC50 [1]: 690 nM
- Emax: 126%

Compound: COc1ccccc1[C@@H](CO)C(=O)N1Cc2cn(S(=O)(=O)c3cnn(CC(F)F)c3C)nc2C1 [Compound 103, (2S)-1-{2-[1-(2,2-difluoroethyl)-5-methylpyrazol-4-ylsulfonyl]-4H,6H-pyrrolo[3,4-c]pyrazol-5-yl}-3-hydroxy-2-(2-methoxyphenyl)propan-1-one]
- AC50 [1]: 26 nM
- Emax: 101%

From patent US11566030B2, “Substituted 2,6-dihydropyrrolo[3,4-c]pyrazoles as pyruvate kinase activators” (priority 2021, dated 2023)
